Legend:
[1] = system: hyperuricemia mouse model; experiment: Therapeutic effect in hyperuricemia model mice (uric acid inhibitors injected subcutaneously), Example 8; format: in vivo, C57BL/6 mice; conditions: mUox@iLAND 200 μL tail vein once; Allopurinol daily in drinking water; vs PBS group; FIG. 15
From the text: (§1) Female C57BL/6 mice aged 6 to 8 weeks were purchased from SPF (BEIJING) BIOTECHNOLOGY CO., LTD. The mice were randomly divided into 4 groups and subjected to different treatments, i.e., one group was fed normally, and the other three groups were constructed as models of hyperuricemia. For model mice, uric acid inhibitors were subcutaneously injected on Day −14. On Day 0, blood of all the mice was collected by orbital sampling, and serum was separated to detect uric acid levels. After confirming that the models of mice were successfully modeled, the mice were administrated with drug. The mice that were not subjected to the model construction were raised normally and administrated through tail vein injection with 200 μL of PBS (Control group, G1). The mice were subject to the model construction, and on 14 days after the model construction, the mice were administrated through tail vein injection with 200 μL of PBS (PBS group, G2). […] At different time points after the drug administration, blood of the mice was collected by orbital sampling, and the serum was separated and analyzed for uric acid and other biochemical indices. The changes in weight of the mice were recorded throughout the model construction and drug administration.

[2] = system: hyperuricemia mouse model; experiment: Therapeutic effect in hyperuricemia model mice (0.15% high-purine feed), Example 9; format: in vivo, C57BL/6 mice; conditions: for serum uric acid during treatment: Allopurinol daily in drinking water
From the text: as §1, with “For the” for “For”, “the mice” for “uric acid inhibitors”, “fed with 0.15% high-purine feed starting from” for “subcutaneously injected on”, “−14, that is, the hyperuricemia model was constructed by continuous high-purine diet.” for “−14.”, “administration. […] The liver tissue was taken for metabolomics analysis, and the heart, liver, spleen, lung, kidney, and other tissues and organs were fixed and analyzed for pathological changes by H&E staining.” for “administration.”
The same method as step 1 of the present example was used to construct the hyperuricemia mouse model, and the therapeutic effect of the novel lipid nanoparticle Uox1@iLAND in the hyperuricemia mouse model was evaluated. […] At different time points after the drug administration, blood of the mice was collected by orbital sampling, and the serum was separated and the uric acid level was measured.

Q: `Oc1ncnc2[nH]ncc12` [Allopurinol] was tested. Which “serum uric acid during treatment” value [1] did it give?
A: able to maintain a certain level of uric acid

Q: What about the “serum uric acid level reached” value ([2]; step 1, Allopurinol daily in drinking water, FIG. 19) of the same molecule?
A: around 0 μM

Q: And the “serum uric acid during treatment” value ([2]; step 1, mUox@iLAND 200 μL tail vein once, FIG. 19)?
A: lowered the uric acid level below the normal level

Q: What about the “serum uric acid during treatment” value ([2]; step 2, Uox1@iLAND 200 μL tail vein once, FIG. 24) of the same molecule?
A: lower the uric acid level to a level same as the normal level or a level lower than the normal level
